Data: ChEMBL document CHEMBL2429810, “Heteroannelated and 7-deoxygenated goniofufurone mimics with antitumour activity: design, synthesis and preliminary SAR studies” (Bioorg Med Chem Lett, 2013)
pIC50: −log10 of the molar value.

Columns and labels:
[1] = test system: MRC5; experiment: Antiproliferative activity against human MRC5 cells after 72 hrs by MTT assay; type: cell-based; conditions: MRC5, 72 h
[2] = test system: HL-60; experiment: Antiproliferative activity against human HL60 cells after 72 hrs by MTT assay; type: functional, cell-based; conditions: HL-60, 72 h
[3] = test system: HeLa; experiment: Antiproliferative activity against human HeLa cells after 72 hrs by MTT assay; type: functional, cell-based
[4] = test system: Raji; experiment: Ratio of doxorubicin IC50 to compound IC50 for human Raji cells; type: functional
[5] = test system: Jurkat; experiment: Antiproliferative activity against human Jurkat cells after 72 hrs by MTT assay; type: functional, cell-based
[6] = test system: Raji; experiment: Antiproliferative activity against human Raji cells after 72 hrs by MTT assay; type: functional, cell-based
[7] = test system: K562; experiment: Antiproliferative activity against human K562 cells after 72 hrs by MTT assay; type: functional, cell-based; conditions: K562, 72 h

pIC50 [2] | pIC50 [3] | pIC50 [5] | pIC50 [6] | pIC50 [7] | SMILES | pIC50 [1] | Ratio IC50 [4]
 |  |  |  |  | O=C1C[C@H]2O[C@H](Cc3ccccc3)[C@H](O)[C@H]2O1 | < 4.00 | 
< 4.00 |  |  |  |  | O=C1C[C@H]2O[C@H]([C@H](O)c3ccccc3)[C@H](O)[C@H]2O1 | < 4.00 | 
6.77 | 5.92 | 6.92 | 7.52 | 7.70 | O=C1C[C@@H]2O[C@@H](Cc3ccccc3)[C@@H](O)[C@@H]2O1 | < 4.00 | 100
6.25 | 5.36 | 6.00 | 5.02 | 6.85 | O=C1C[C@H]2O[C@H](Cc3ccccc3)[C@H](OCc3ccccc3)[C@H]2O1 | < 4.00 | 
4.93 | 4.94 | 4.67 | 5.25 | 5.81 | Cc1ccccc1[C@H](c1ccccc1)[C@H]1O[C@@H]2CC(=O)O[C@@H]2[C@H]1O | < 4.00 | 
6.11 | < 4.00 | 7.13 | 6.34 | 5.84 | O=C1C[C@H]2O[C@@H]3[C@@H](c4ccccc4)c4ccccc4CO[C@@H]3[C@H]2O1 | < 4.00 | 
4.93 | 5.18 | 4.73 | 4.80 | 5.92 | O=C1C[C@@H]2O[C@H]3[C@H](c4ccccc4)c4ccccc4CO[C@H]3[C@@H]2O1 | < 4.00 | 
